Assay results published in patent US3976788A (priority 1974, dated 1976).
“Also recorded” adds a separate entry of the source.

System: male CF-1 mice
Assay: Convulsions in mice, 5 min inhalation exposure to test compound in air
Format: in vivo, mouse (male CF-1)
Details: Table 1
Procedure: (§1) If anesthesia occurred, the median anesthetic concentration (AC50) was established. Another thirty mice were treated similarly to establish the median lethal concentration (LC50). The concentrations were calculated from the volume used and density of the test compound and the volume of air (6.3 l) in the test jar using the ideal gas law. The results for the convulsant ethers are given in Table 1; Tables 2 and 3 contain the results for related nonconvulsant ethers, most of which are good anesthetic agents.

**Q.** Which “ADDITIONAL REMARKS: type of convulsions and other effects” value (shortened to “ADDITIONAL REMARKS: type”) does the source give for FC(F)OCC(F)(F)C(F)F [I, Difluoromethyl 2,2,3,3-tetrafluoropropyl ether] here?
**A.** CLONIC CONVULSIONS

**Q.** Which “ADDITIONAL REMARKS: type” value does the source give for FC(F)OCC(F)(F)C(F)(F)F [II, Difluoromethyl 2,2,3,3,3-pentafluoropropyl ether] here?
**A.** CLONIC AND TONIC CONVULSIONS; also recorded: CATALEPSY

**Q.** With FC(F)OC(F)(C(F)F)C(F)F [IV, Difluromethyl 1,1,2,3,3-pentafluoro-2-propyl ether] as the molecule, how does the “ADDITIONAL REMARKS: type” value read?
**A.** C[…] SEDATION

**Q.** For FCOCC(F)(F)C(F)(F)F [V, Fluoromethyl 2,2,3,3,3-pentafluoropropyl ether], which “ADDITIONAL REMARKS: type” value is on record?
**A.** METRAZOLE-LIKE CONVULSIONS

**Q.** For FC(F)(F)COCC(F)(F)F [VII, fluorothyl], which “ADDITIONAL REMARKS: type” value is on record?
**A.** CLONIC AND TONIC CONVULSIONS

Same assay, conditions: clonic and tonic convulsions

**Q.** For FC(F)(F)COCC(F)(F)F [VII, fluorothyl], which “ADDITIONAL REMARKS: time of convulsions” value is on record?
**A.** 30 s

Same assay, conditions: mouse, inhalation, 5 min

**Q.** With FC(F)OCC(F)(F)C(F)F [I, Difluoromethyl 2,2,3,3-tetrafluoropropyl ether] as the molecule, how does the “MOUSE CONVULSANT CONC., VOL. %” value read?
**A.** 1.0 VOL. %

**Q.** For FC(F)OCC(F)(F)C(F)(F)F [II, Difluoromethyl 2,2,3,3,3-pentafluoropropyl ether], which “MOUSE CONVULSANT CONC., VOL. %” value is on record?
**A.** 1.4 VOL. %

**Q.** Which “MOUSE CONVULSANT CONC., VOL. %” value does the source give for FC(F)OC(F)(F)C(F)C(F)(F)F (stereo not shown) [III, Difluoromethyl 1,1,2,3,3,3-hexafluoropropyl ether] here?
**A.** 2.0 VOL. %

**Q.** For FC(F)OC(F)(C(F)F)C(F)F [IV, Difluromethyl 1,1,2,3,3-pentafluoro-2-propyl ether], which “MOUSE CONVULSANT CONC., VOL. %” value is on record?
**A.** 1.2 VOL. %

**Q.** With FCOCC(F)(F)C(F)(F)F [V, Fluoromethyl 2,2,3,3,3-pentafluoropropyl ether] as the molecule, how does the “MOUSE CONVULSANT CONC., VOL. %” value read?
**A.** 1.5 VOL. %

**Q.** Which “MOUSE CONVULSANT CONC., VOL. %” value does the source give for FC(F)C(F)(F)COC(F)(F)F [VI] here?
**A.** ≤ 0.5 VOL. %

System: male CF-1 mice
Assay: not given
Details: footnote 5 (Krantz et al.); cited from earlier work

**Q.** Which “MOUSE LC50” value does the source give for FC(F)(F)COCC(F)(F)F [VII, fluorothyl] here?
**A.** < 0.50 VOL. %

System: not listed separately
Assay: Stability to heat
Format: physicochemical
Details: not given
Procedure: which can be treated with about a 0.4 molar equivalent of bromine trifluoride at -5° C to give the ether V (See Examples 8 and 9).

**Q.** For FC(F)OCC(F)(F)C(F)F [I, Difluoromethyl 2,2,3,3-tetrafluoropropyl ether], which “stability to heat compared with V” value is on record?
**A.** more stable than V to heat

**Q.** With FC(F)OCC(F)(F)C(F)(F)F [II, Difluoromethyl 2,2,3,3,3-pentafluoropropyl ether] as the molecule, how does the “stability to heat compared with V” value read?
**A.** more stable than V to heat

**Q.** Which “stability to heat compared with V” value does the source give for FC(F)OC(F)(F)C(F)C(F)(F)F (stereo not shown) [III, Difluoromethyl 1,1,2,3,3,3-hexafluoropropyl ether] here?
**A.** more stable than V to heat

**Q.** Which “stability to heat compared with V” value does the source give for FC(F)OC(F)(C(F)F)C(F)F [IV, Difluromethyl 1,1,2,3,3-pentafluoro-2-propyl ether] here?
**A.** more stable than V to heat

Same assay, conditions: e.g., soda lime

**Q.** For FCOCC(F)(F)C(F)(F)F [V, Fluoromethyl 2,2,3,3,3-pentafluoropropyl ether], which “stability to heat in the presence of an alkaline material” value is on record?
**A.** stable to 70 °C

Same assay, conditions: upon distillation at 760 torr

**Q.** For FCOCC(F)(F)C(F)(F)F [V, Fluoromethyl 2,2,3,3,3-pentafluoropropyl ether], which stability to heat is on record?
**A.** unstable to heat and decomposed with the formation of hydrogen fluoride

System: not given
Assay: not given
Details: footnote 3 (Aldrich and Sheppard); cited from earlier work

**Q.** With FC(F)C(F)(F)COC(F)(F)F [VI] as the molecule, how does the “ADDITIONAL REMARKS: convulsions and death” value read?
**A.** VIOLENT C[…] DEATH

**Q.** And the “ADDITIONAL REMARKS: time of convulsions and death” value?
**A.** 30 to 120 s

System: male CF-1 mice
Assay: Anesthesia in mice (median anesthetic concentration AC50)
Format: in vivo, mouse (male CF-1)
Details: inhalation, 5 min
Procedure: as §1

**Q.** For FC(F)OC(F)C(F)(F)C(F)(F)F (stereo not shown) [IX], which “MOUSE AC50 (median anesthetic concentration)” value (“MOUSE AC50” below) is on record?
**A.** 4.3 VOL. %

**Q.** Which “MOUSE AC50” value does the source give for FCOC(F)(F)C(F)C(F)(F)F (stereo not shown) [XIII] here?
**A.** 2.1 VOL. %

**Q.** For FC(F)OC(C(F)F)C(F)F [XII], which “MOUSE AC50” value is on record?
**A.** 0.64 VOL. %

**Q.** Which “MOUSE AC50” value does the source give for FCOC(F)(C(F)F)C(F)(F)F (stereo not shown) [XIV] here?
**A.** 2.5 VOL. %

**Q.** With COCC(F)(F)C(F)(F)F [XIX, methyl 2,2,3,3,3-pentafluoropropyl ether] as the molecule, how does the “MOUSE AC50” value read?
**A.** 11 VOL. %

**Q.** Which “MOUSE AC50” value does the source give for FC(F)OC(C(F)F)C(F)(F)F (stereo not shown) [XI] here?
**A.** 0.84 VOL. %

**Q.** Which “MOUSE AC50” value does the source give for COC(F)(F)C(F)C(F)(F)F (stereo not shown) [XVIII, methyl 1,1,2,3,3,3-hexafluoropropyl ether] here?
**A.** 3.9 VOL. %

**Q.** With FCOC(C(F)F)C(F)(F)F (stereo not shown) [XVI] as the molecule, how does the “MOUSE AC50” value read?
**A.** 0.84 VOL. %

**Q.** With FCOC(C(F)(F)F)C(F)(F)F [XV] as the molecule, how does the “MOUSE AC50” value read?
**A.** 1.4 VOL. %

**Q.** With COC(C(F)F)C(F)F [XXIII] as the molecule, how does the “MOUSE AC50” value read?
**A.** 1.4 VOL. %

**Q.** Which “MOUSE AC50” value does the source give for COC(C(F)F)C(F)(F)F (stereo not shown) [XXII] here?
**A.** 1.5 VOL. %

**Q.** With COC(C(F)(F)F)C(F)(F)F [XXI] as the molecule, how does the “MOUSE AC50” value read?
**A.** 2.2 VOL. %

**Q.** Which “MOUSE AC50” value does the source give for COCC(F)(F)C(F)F [XX] here?
**A.** 2.5 VOL. %

**Q.** For FC(F)OC(C(F)(F)F)C(F)(F)F [X], which “MOUSE AC50” value is on record?
**A.** 2.5 VOL. %

System: male CF-1 mice
Assay: Lethality in mice (median lethal concentration LC50)
Format: in vivo, mouse (male CF-1)
Details: inhalation, 5 min
Procedure: as §1

**Q.** For FC(F)OCC(F)(F)C(F)F [I, Difluoromethyl 2,2,3,3-tetrafluoropropyl ether], which “MOUSE LC50” value is on record?
**A.** 3.2 VOL. %

**Q.** With FC(F)OCC(F)(F)C(F)(F)F [II, Difluoromethyl 2,2,3,3,3-pentafluoropropyl ether] as the molecule, how does the “MOUSE LC50” value read?
**A.** > 4.2 VOL. %

**Q.** For FC(F)OC(F)(F)C(F)C(F)(F)F (stereo not shown) [III, Difluoromethyl 1,1,2,3,3,3-hexafluoropropyl ether], which “MOUSE LC50” value is on record?
**A.** > 12 VOL. %

**Q.** Which “MOUSE LC50” value does the source give for FC(F)OC(F)(C(F)F)C(F)F [IV, Difluromethyl 1,1,2,3,3-pentafluoro-2-propyl ether] here?
**A.** 5.3 VOL. %

**Q.** Which “MOUSE LC50” value does the source give for FC(F)OC(F)C(F)(F)C(F)(F)F (stereo not shown) [IX] here?
**A.** > 9.9 VOL. %

**Q.** For FCOCC(F)(F)C(F)(F)F [V, Fluoromethyl 2,2,3,3,3-pentafluoropropyl ether], which “MOUSE LC50” value is on record?
**A.** > 3.0 VOL. %

**Q.** For FC(F)C(F)(F)COC(F)(F)F [VI], which “MOUSE LC50” value is on record?
**A.** ≤ 0.5 VOL. %

**Q.** For FCOC(F)(F)C(F)C(F)(F)F (stereo not shown) [XIII], which “MOUSE LC50” value is on record?
**A.** 6.4 VOL. %

**Q.** Which “MOUSE LC50” value does the source give for FC(F)OC(C(F)F)C(F)F [XII] here?
**A.** 3.8 VOL. %

**Q.** With FCOC(F)(C(F)F)C(F)(F)F (stereo not shown) [XIV] as the molecule, how does the “MOUSE LC50” value read?
**A.** 9.0 VOL. %

**Q.** Which “MOUSE LC50” value does the source give for COCC(F)(F)C(F)(F)F [XIX, methyl 2,2,3,3,3-pentafluoropropyl ether] here?
**A.** 16 VOL. %

**Q.** With FC(F)OC(C(F)F)C(F)(F)F (stereo not shown) [XI] as the molecule, how does the “MOUSE LC50” value read?
**A.** 4.9 VOL. %

**Q.** For COC(F)(F)C(F)C(F)(F)F (stereo not shown) [XVIII, methyl 1,1,2,3,3,3-hexafluoropropyl ether], which “MOUSE LC50” value is on record?
**A.** > 8.0 VOL. %

**Q.** For COC(F)(F)C(F)(F)C(F)(F)F [XVII], which “MOUSE LC50” value is on record?
**A.** 50 VOL. %

**Q.** For FCOC(C(F)F)C(F)(F)F (stereo not shown) [XVI], which “MOUSE LC50” value is on record?
**A.** 5.1 VOL. %

**Q.** With FCOC(C(F)(F)F)C(F)(F)F [XV] as the molecule, how does the “MOUSE LC50” value read?
**A.** 8.5 VOL. %

**Q.** With COC(C(F)F)C(F)F [XXIII] as the molecule, how does the “MOUSE LC50” value read?
**A.** > 7.8 VOL. %

**Q.** For COC(C(F)F)C(F)(F)F (stereo not shown) [XXII], which “MOUSE LC50” value is on record?
**A.** 6.9 VOL. %

**Q.** With COC(C(F)(F)F)C(F)(F)F [XXI] as the molecule, how does the “MOUSE LC50” value read?
**A.** 9.0 VOL. %

**Q.** For COCC(F)(F)C(F)F [XX], which “MOUSE LC50” value is on record?
**A.** 7.0 VOL. %

**Q.** With FC(F)OC(C(F)(F)F)C(F)(F)F [X] as the molecule, how does the “MOUSE LC50” value read?
**A.** 12 VOL. %

Same assay, conditions: mouse

**Q.** Which “ADDITIONAL REMARKS: cause of death” value does the source give for COC(F)(F)C(F)(F)C(F)(F)F [XVII] here?
**A.** DEATH DUE TO ANOXIA

System: flurothyl induced convulsions
Assay: not given
Details: footnote 5 (Krantz et al.); cited from earlier work

**Q.** Which “antagonist to flurothyl (induced convulsions)” value does the source give for COC(C(F)(F)F)C(F)(F)F [XXI] here?
**A.** ANTAGONIST

System: male CF-1 mice
Assay: not given
Details: footnote 5 (Krantz et al.); cited from earlier work
Remark: another data set of the same source

**Q.** For FC(F)(F)COCC(F)(F)F [VII, fluorothyl], which “MOUSE CONVULSANT CONC., VOL. %” value is on record?
**A.** ≤ 0.25 VOL. %

System: dogs
Assay: Convulsions / other effects in dogs
Format: in vivo, dog
Details: not given

**Q.** With FC(F)OC(F)(C(F)F)C(F)F [IV, Difluromethyl 1,1,2,3,3-pentafluoro-2-propyl ether] as the molecule, how does the “ADDITIONAL REMARKS: convulsions in dogs” value read?
**A.** OPI[…]. IN DOGS

**Q.** For FCOC(F)(C(F)F)C(F)(F)F (stereo not shown) [XIV], which “ADDITIONAL REMARKS: convulsions in dogs” value is on record?
**A.** NON[…] DOGS

**Q.** Which “ADDITIONAL REMARKS: convulsions in dogs” value does the source give for FCOC(C(F)(F)F)C(F)(F)F [XV] here?
**A.** NON[…] DOGS

**Q.** With COC(C(F)(F)F)C(F)(F)F [XXI] as the molecule, how does the “ADDITIONAL REMARKS: convulsions in dogs” value read?
**A.** NON[…] DOGS

**Q.** For FC(F)OC(C(F)(F)F)C(F)(F)F [X], which “ADDITIONAL REMARKS: convulsions in dogs” value is on record?
**A.** NON[…] DOGS
